Laboratory results taken from patent US20220211652A1, “USE OF AN RXR AGONIST IN TREATING HER2+ CANCERS” (Io Therapeutics, Inc, priority 2019, published 2022).

Experiments:
[1] = test system: PPAR/RXR, FXR/RXR, or LXR/RXR; settings: cited from earlier work
PPAR/RXR = test: Activation of permissive heterodimer PPAR/RXR; assay type: cell-based
RARα = RARα (Homo sapiens, UniProt P10276); settings: α isoform
LXR/RXR = test: Activation of permissive heterodimer LXR/RXR; assay type: cell-based
Nurr1/RXR heterodimer = test: Activation of permissive heterodimer Nurr1/RXR; assay type: cell-based
RARβ = RARβ (Homo sapiens, UniProt P10826); settings: β isoform
Sequence of RARβ (P10826 whole entry, species assumed, canonical isoform): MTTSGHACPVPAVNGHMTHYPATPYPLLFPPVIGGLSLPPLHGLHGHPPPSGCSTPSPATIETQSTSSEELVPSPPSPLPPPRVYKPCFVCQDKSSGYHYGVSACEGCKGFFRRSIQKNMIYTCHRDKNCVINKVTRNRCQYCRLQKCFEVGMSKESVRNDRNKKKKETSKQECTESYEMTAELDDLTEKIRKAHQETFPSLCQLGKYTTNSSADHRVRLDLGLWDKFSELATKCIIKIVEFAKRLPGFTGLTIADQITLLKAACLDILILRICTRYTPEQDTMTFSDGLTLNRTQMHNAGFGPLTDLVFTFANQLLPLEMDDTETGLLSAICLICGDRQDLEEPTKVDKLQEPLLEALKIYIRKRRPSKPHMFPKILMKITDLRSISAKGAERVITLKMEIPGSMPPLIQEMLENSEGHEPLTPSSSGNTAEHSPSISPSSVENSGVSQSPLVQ

MCF7 cells = test: Growth inhibition of MCF7 breast cancer cells, DAPI nuclei count; assay type: cell-based; settings: Her2− MCF7 cell line, FIG. 1A; IRX4204 10-1000 nM, trastuzumab 0.1-10 μg/ml
Text: (§1) MCF7 is an ER^+ PR^+ Her2^− cell line. SkBr3 is an ER^− PR^− Her2^+ cell line. […] After a further 6 days, the cells were fixed with 4% paraformaldehyde in phosphate buffered saline (PBS).
(§2) Additionally the panel of breast cancer cell lines was expanded to also include the ER^+ PR^+ Her2^+ cell line BT474 and the ER^+ PR^− Her2^+ cell line MDA-MB-361.

RXR homodimers = test: Activation of RXR homodimers; assay type: cell-based
FXR/RXR = test: Activation of permissive heterodimer FXR/RXR; assay type: cell-based
SkBr3 cells = test: Growth inhibition of SkBr3 breast cancer cells, DAPI nuclei count; assay type: cell-based; settings: Her2+ SkBr3 cell line, FIG. 1B; IRX4204 10-1000 nM, trastuzumab 0.1-10 μg/ml
Text: as §1, §2

RAR/RXR = test: Activation of non-permissive heterodimer RAR/RXR; assay type: cell-based
RARγ = RARγ (Homo sapiens, UniProt P13631); settings: γ isoform
Sequence of RARγ (P13631 whole entry, species assumed, canonical isoform): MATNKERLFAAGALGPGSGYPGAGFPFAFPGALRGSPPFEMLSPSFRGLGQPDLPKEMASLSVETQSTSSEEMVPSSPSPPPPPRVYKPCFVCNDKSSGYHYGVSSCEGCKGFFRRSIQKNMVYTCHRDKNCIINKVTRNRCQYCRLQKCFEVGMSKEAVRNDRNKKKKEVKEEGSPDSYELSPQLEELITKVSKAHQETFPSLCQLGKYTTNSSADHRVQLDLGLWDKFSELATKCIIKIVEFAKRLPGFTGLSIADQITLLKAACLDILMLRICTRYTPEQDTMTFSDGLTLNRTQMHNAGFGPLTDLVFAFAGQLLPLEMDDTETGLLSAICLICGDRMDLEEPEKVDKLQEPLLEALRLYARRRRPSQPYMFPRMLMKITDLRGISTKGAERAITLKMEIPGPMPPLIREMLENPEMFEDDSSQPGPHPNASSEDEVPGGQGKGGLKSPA

Sequence of RARα (P10276 whole entry, species assumed, canonical isoform): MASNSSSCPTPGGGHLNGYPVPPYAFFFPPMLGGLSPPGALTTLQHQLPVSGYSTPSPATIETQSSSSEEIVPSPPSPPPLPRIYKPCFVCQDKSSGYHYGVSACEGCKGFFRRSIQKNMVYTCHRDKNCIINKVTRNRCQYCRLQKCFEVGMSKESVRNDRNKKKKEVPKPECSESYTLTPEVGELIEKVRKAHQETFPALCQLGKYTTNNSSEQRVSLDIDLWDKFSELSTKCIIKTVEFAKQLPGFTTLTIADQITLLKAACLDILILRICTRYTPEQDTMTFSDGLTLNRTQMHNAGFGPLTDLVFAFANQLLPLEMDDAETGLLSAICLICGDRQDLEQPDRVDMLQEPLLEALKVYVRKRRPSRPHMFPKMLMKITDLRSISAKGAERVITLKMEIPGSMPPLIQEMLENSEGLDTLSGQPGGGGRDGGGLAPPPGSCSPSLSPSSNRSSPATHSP

| SMILES | activation of one or more of PPAR/RXR, FXR/RXR, or LXR/RXR (in words) [1] | activation of PPAR/RXR (in words) (PPAR/RXR) | RAR EC10 (concentration effective to cause a 10% of maximal activation of the RAR) (RARα) [nM] | activation of LXR/RXR (in words) (LXR/RXR) | activation of the Nurr1/RXR heterodimer (in words) (Nurr1/RXR heterodimer) | RAR EC10 (concentration effective to cause a 10% of maximal activation of the RAR) (RARβ) [nM] | growth inhibitory effect (in words) (MCF7 cells) | activation of RXR homodimers (in words) (RXR homodimers) | activation of FXR/RXR (in words) (FXR/RXR) | growth inhibitory effect (in words) (SkBr3 cells) | activation of non-permissive heterodimers such as RAR/RXR (in words) (RAR/RXR) | RAR EC10 (concentration effective to cause a 10% of maximal activation of the RAR) (RARγ) [nM] |
| --- | --- | --- | --- | --- | --- | --- | --- | --- | --- | --- | --- | --- |
| Cc1cc2c(cc1C1(c3ccc(C(=O)O)cn3)CC1)C(C)(C)CCC2(C)C [LGD268] | activates one or more | – | – | – | – | – | – | – | – | – | – | – |
| CC(/C=C/[C@@H]1C[C@]1(C)c1ccc2c(c1)C(C)(C)CCC2(C)C)=C\C(=O)O [IRX4204, 3,7-dimethyl-6(S),7(S)-methano,7-[1,1,4,4-tetramethyl-1,2,3,4-tetrahydron-aphth-7-yl]2(E), 4(E) heptadienoic acid] | – | does not activate | 300 | does not activate | specifically activates | 200 | neither agent had more than marginal effect | specifically activate | does not activate | moderate growth inhibitory effect | does not activate | 200 |
